According to ChEMBL document CHEMBL3797052 (Eur J Med Chem, 2016):

Tests used:
Format in all cases: functional
[1] = Antiproliferative activity against human BT549 cells assessed as cell growth at 10^-6 M after 48 hrs by sulforhodamine B assay; settings: BT-549, 48 h, read-out: Activity
[2] = Antiproliferative activity against human COLO205 cells assessed as cell growth at 10^-8 M after 48 hrs by sulforhodamine B assay; settings: COLO 205, 48 h, read-out: Activity
M14 = experiment: Antiproliferative activity against human M14 cells assessed as cell growth at 10^-4 M after 48 hrs by sulforhodamine B assay; settings: M14, 48 h, read-out: Activity
[3] = Antiproliferative activity against human UACC62 cells assessed as cell growth at 10^-7 M after 48 hrs by sulforhodamine B assay; settings: UACC-62, 48 h, read-out: Activity
[4] = Antiproliferative activity against human LOXIMVI cells assessed as growth inhibition after 48 hrs by sulforhodamine B assay; settings: LOX IMVI; for CC50: read-out: LC50 (the source's name)
Malme-3M = experiment: Antiproliferative activity against human MALME-3M cells assessed as growth inhibition after 48 hrs by sulforhodamine B assay; settings: for CC50: read-out: LC50 (the source's name)
[5] = Antiproliferative activity against human MOLT4 cells assessed as growth inhibition after 48 hrs by sulforhodamine B assay; settings: MOLT-4, 48 h
[6] = Antiproliferative activity against human HCT15 cells assessed as cell growth at 10^-4 M after 48 hrs by sulforhodamine B assay; settings: HCT-15, 48 h, read-out: Activity
[7] = Antiproliferative activity against human Hs 578T cells assessed as cell growth at 10^-6 M after 48 hrs by sulforhodamine B assay; settings: read-out: Activity
[8] = Antiproliferative activity against human PC3 cells assessed as cell growth at 10^-8 M after 48 hrs by sulforhodamine B assay; settings: PC-3, 48 h, read-out: Activity
[9] = Antiproliferative activity against human UO31 cells assessed as cell growth at 10^-6 M after 48 hrs by sulforhodamine B assay; settings: UO-31, 48 h, read-out: Activity
SK-MEL-28 = experiment: Antiproliferative activity against human SK-MEL-28 cells assessed as cell growth at 10^-6 M after 48 hrs by sulforhodamine B assay; settings: SK-MEL-28, 48 h, read-out: Activity
[10] = Antiproliferative activity against human HOP62 cells assessed as cell growth at 10^-8 M after 48 hrs by sulforhodamine B assay; settings: HOP-62, 48 h, read-out: Activity
NCI-H460 = experiment: Antiproliferative activity against human NCI-H460 cells assessed as cell growth at 10^-8 M after 48 hrs by sulforhodamine B assay; settings: NCI-H460, 48 h, read-out: Activity
K562 [11] = experiment: Antiproliferative activity against human K562 cells assessed as cell growth at 10^-8 M after 48 hrs by sulforhodamine B assay; settings: K562, 48 h, read-out: Activity
[12] = Antiproliferative activity against human IGROV1 cells assessed as cell growth at 10^-8 M after 48 hrs by sulforhodamine B assay; settings: IGROV-1, 48 h, read-out: Activity
U-251 [13] = experiment: Antiproliferative activity against human U251 cells assessed as cell growth at 10^-7 M after 48 hrs by sulforhodamine B assay; settings: U-251, 48 h, read-out: Activity
KM12 = experiment: Antiproliferative activity against human KM12 cells assessed as cell growth at 10^-4 M after 48 hrs by sulforhodamine B assay; settings: KM12, 48 h, read-out: Activity
[14] = Antiproliferative activity against human UACC257 cells assessed as cell growth at 10^-6 M after 48 hrs by sulforhodamine B assay; settings: UACC-257, 48 h, read-out: Activity
[15] = Antiproliferative activity against human SF295 cells assessed as cell growth at 10^-4 M after 48 hrs by sulforhodamine B assay; settings: SF-295, 48 h, read-out: Activity
[16] = Antiproliferative activity against human SKOV3 cells assessed as cell growth at 10^-8 M after 48 hrs by sulforhodamine B assay; settings: SK-OV-3, 48 h, read-out: Activity
[17] = Antiproliferative activity against human HCT116 cells assessed as cell growth at 10^-8 M after 48 hrs by sulforhodamine B assay; settings: HCT-116, 48 h, read-out: Activity
CCRF-CEM = experiment: Antiproliferative activity against human CCRF-CEM cells assessed as cell growth at 10^-7 M after 48 hrs by sulforhodamine B assay; settings: read-out: Activity
[18] = Antiproliferative activity against human IGROV1 cells assessed as cell growth at 10^-6 M after 48 hrs by sulforhodamine B assay; settings: IGROV-1, 48 h, read-out: Activity
NCI-H23 [19] = experiment: Antiproliferative activity against human NCI-H23 cells assessed as cell growth at 10^-4 M after 48 hrs by sulforhodamine B assay; settings: NCI-H23, 48 h, read-out: Activity
[20] = Antiproliferative activity against human HOP62 cells assessed as growth inhibition after 48 hrs by sulforhodamine B assay; settings: HOP-62, 48 h
[21] = Antiproliferative activity against human HL-60(TB) cells assessed as cell growth at 10^-8 M after 48 hrs by sulforhodamine B assay; settings: HL-60, 48 h, read-out: Activity
NCI-H522 = experiment: Antiproliferative activity against human NCI-H522 cells assessed as cell growth at 10^-8 M after 48 hrs by sulforhodamine B assay; settings: NCI-H522, 48 h, read-out: Activity
786-0 = experiment: Antiproliferative activity against human 786-0 cells assessed as cell growth at 10^-8 M after 48 hrs by sulforhodamine B assay; settings: 786-0, 48 h, read-out: Activity
K562 [22] = experiment: Antiproliferative activity against human K562 cells assessed as cell growth at 10^-6 M after 48 hrs by sulforhodamine B assay; settings: K562, 48 h, read-out: Activity
A498 = experiment: Antiproliferative activity against human A498 cells assessed as cell growth at 10^-6 M after 48 hrs by sulforhodamine B assay; settings: A498, 48 h, read-out: Activity
EKVX = experiment: Antiproliferative activity against human EKVX cells assessed as growth inhibition after 48 hrs by sulforhodamine B assay; settings: for CC50: read-out: LC50 (the source's name)
U-251 [23] = experiment: Antiproliferative activity against human U251 cells assessed as cell growth at 10^-6 M after 48 hrs by sulforhodamine B assay; settings: U-251, 48 h, read-out: Activity
[24] = Antiproliferative activity against human OVCAR5 cells assessed as cell growth at 10^-4 M after 48 hrs by sulforhodamine B assay; settings: OVCAR-5, 48 h, read-out: Activity
NCI-H23 [25] = experiment: Antiproliferative activity against human NCI-H23 cells assessed as cell growth at 10^-8 M after 48 hrs by sulforhodamine B assay; settings: NCI-H23, 48 h, read-out: Activity

CNC(=O)c1cc(Oc2ccc3nc(NC(=O)c4cc(C(F)(F)F)cc(C(F)(F)F)c4)sc3c2)ccn1
growth at 1 µM [1]: 92% | growth at 0.01 µM [2]: 99% | growth at 100 µM (M14): -38% | growth at 0.1 µM [3]: 86% | GI50 [4]: 3.39 µM | TGI [4]: 15.1 µM | CC50 [4]: 97.5 µM | GI50 (Malme-3M): 2.03 µM | TGI (Malme-3M): 6.65 µM | CC50 (Malme-3M): > 100 µM | GI50 [5]: 2.61 µM | LC50 [5]: > 100 µM | TGI [5]: 12.4 µM | growth at 100 µM [6]: -29% | growth at 1 µM [7]: 94% | growth at 0.01 µM [8]: 96% | growth at 1 µM [9]: 78% | growth at 1 µM (SK-MEL-28): 87% | growth at 0.01 µM [10]: 99% | growth at 0.01 µM (NCI-H460): 99% | growth at 0.01 µM (K562 [11]): 103% | growth at 0.01 µM [12]: 106% | growth at 0.1 µM (U-251 [13]): 97% | growth at 100 µM (KM12): -52% | growth at 1 µM [14]: 101% | growth at 100 µM [15]: -73% | growth at 0.01 µM [16]: 100% | growth at 0.01 µM [17]: 111% | growth at 0.1 µM (CCRF-CEM): 108% | growth at 1 µM [18]: 90% | growth at 100 µM (NCI-H23 [19]): -45% | GI50 [20]: 3.36 µM | LC50 [20]: 51.6 µM | TGI [20]: 10.8 µM | growth at 0.01 µM [21]: 92% | growth at 0.01 µM (NCI-H522): 90% | growth at 0.01 µM (786-0): 98% | growth at 1 µM (K562 [22]): 102% | growth at 1 µM (A498): 66% | GI50 (EKVX): 3.43 µM | TGI (EKVX): 23.3 µM | CC50 (EKVX): > 100 µM | growth at 1 µM (U-251 [23]): 99% | growth at 100 µM [24]: -48% | growth at 0.01 µM (NCI-H23 [25]): 96%

CNC(=O)c1cc(Oc2ccc(NC(=O)Nc3ccc(Cl)c(C(F)(F)F)c3)cc2)ccn1 [SORAFENIB]
TGI [4]: 3.16 µM | CC50 [4]: 7.94 µM | GI50 (Malme-3M): 2 µM | TGI (Malme-3M): 6.31 µM | CC50 (Malme-3M): 63.1 µM | GI50 [5]: 3.16 µM | TGI [5]: 100 µM | GI50 [20]: 2 µM | TGI [20]: 7.94 µM | GI50 (EKVX): 2.51 µM | TGI (EKVX): 7.94 µM | CC50 (EKVX): 63.1 µM
